Measured values taken from publication PMC4450297, “Screening Active Compounds from Garcinia Species Native to China Reveals Novel Compounds Targeting the STAT/JAK Signaling Pathway” (BioMed Research International, 2015).

Assays:
Assay in all cases: Cell panel screen (CellTiter-Glo)
Assay type in all cases: cell-based, human
TCCSUP = TCCSUP (Urinary bladder), 20 micromolar, 72 hrs
Procedure, shortened: (§1)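 Single-dose 20 μM (final), 72 h exposure; DMSO vehicle controls. Luminescence after 10-min reagent incubation → % growth inhibition = (untreated − treated)/(untreated − no-cell background) × 100.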

SW13 = SW13 (Adrenal gland), 20 micromolar, 72 hrs
Procedure, shortened: as §1

HGC-27 = HGC-27 (Stomach), 20 micromolar, 72 hrs
Procedure, shortened: as §1

Panc 03.27 = Panc 03.27 (Pancreas), 20 micromolar, 72 hrs
Procedure, shortened: as §1

C3A = C3A (Liver), 20 micromolar, 72 hrs
Procedure, shortened: as §1

HCC1395 = HCC1395 (Breast), 20 micromolar, 72 hrs
Procedure, shortened: as §1

ZR-75-30 = ZR-75-30 (Breast), 20 micromolar, 72 hrs
Procedure, shortened: as §1

MSTO-211-H = MSTO-211-H (Lung), 20 micromolar, 72 hrs
Procedure, shortened: as §1

HCC1937 = HCC1937 (Breast), 20 micromolar, 72 hrs
Procedure, shortened: as §1

T47D = T47D (Breast), 20 micromolar, 72 hrs
Procedure, shortened: as §1

NCI-H2405 = NCI-H2405 (Lung), 20 micromolar, 72 hrs
Procedure, shortened: as §1

HPAF-II = HPAF-II (Pancreas), 20 micromolar, 72 hrs
Procedure, shortened: as §1

ChaGo-K-1 = ChaGo-K-1 (Lung), 20 micromolar, 72 hrs
Procedure, shortened: as §1

RL95 = RL95 (Uterus), 20 micromolar, 72 hrs
Procedure, shortened: as §1

A498 = A498 (listed under Lung), 20 micromolar, 72 hrs
Procedure, shortened: as §1

NCI-H28 = NCI-H28 (Lung), 20 micromolar, 72 hrs
Procedure, shortened: as §1

HEC-1-A = HEC-1-A (Uterus), 20 micromolar, 72 hrs
Procedure, shortened: as §1

T98G = T98G (Brain), 20 micromolar, 72 hrs
Procedure, shortened: as §1

BT-474 = BT-474 (Breast), 20 micromolar, 72 hrs
Procedure, shortened: as §1

BT-549 = BT-549 (Breast), 20 micromolar, 72 hrs
Procedure, shortened: as §1

Bel-7402 = Bel-7402 (Liver), 20 micromolar, 72 hrs
Procedure, shortened: as §1

C8166 = C8166 (Leukemia), 20 micromolar, 72 hrs
Procedure, shortened: as §1

A704 = A704 (Kidney), 20 micromolar, 72 hrs
Procedure, shortened: as §1

M059J = M059J (Brain), 20 micromolar, 72 hrs
Procedure, shortened: as §1

Colo 205 = conditions: Colo 205, 20 micromolar, 72 hrs
Procedure, shortened: as §1

NCI-H1623 = NCI-H1623 (Lung), 20 micromolar, 72 hrs
Procedure, shortened: as §1

J82 = J82 (Urinary bladder), 20 micromolar, 72 hrs
Procedure, shortened: as §1

HCC1599 = HCC1599 (Breast), 20 micromolar, 72 hrs
Procedure, shortened: as §1

CCF-STTG1 = CCF-STTG1 (Brain), 20 micromolar, 72 hrs
Procedure, shortened: as §1

CW-2 = CW-2 (Colon), 20 micromolar, 72 hrs
Procedure, shortened: as §1

NCI-H524 = NCI-H524 (Lung), 20 micromolar, 72 hrs
Procedure, shortened: as §1

NCI-H1694 = NCI-H1694 (Lung), 20 micromolar, 72 hrs
Procedure, shortened: as §1

NCI-H2347 = NCI-H2347 (Lung), 20 micromolar, 72 hrs
Procedure, shortened: as §1

HT-1197 = HT-1197 (Urinary bladder), 20 micromolar, 72 hrs
Procedure, shortened: as §1

NCI-H1770 = NCI-H1770 (Lung), 20 micromolar, 72 hrs
Procedure, shortened: as §1

HCC1569 = HCC1569 (Breast), 20 micromolar, 72 hrs
Procedure, shortened: as §1

[1] = Homo sapiens, read-out: Percent Inhibition

CC(C)=CCC/C(C)=C/Cc1c(O)c(CC=C(C)C)c2c(c1O)C(=O)C1=C[C@@H]3C[C@H]4C(C)(C)O[C@@](C/C=C(/C)C(=O)O)(C3=O)[C@@]14O2 [GB16]
Percent Inhibition (TCCSUP): 100% | Percent Inhibition (SW13): 99% | Percent Inhibition (HGC-27): 100% | Percent Inhibition (Panc 03.27): 99% | Percent Inhibition (C3A): 99% | Percent Inhibition (HCC1395): 99% | Percent Inhibition (ZR-75-30): 100% | Percent Inhibition (MSTO-211-H): 100% | Percent Inhibition (HCC1937): 100% | Percent Inhibition (T47D): 99% | Percent Inhibition (NCI-H2405): 99% | Percent Inhibition (HPAF-II): 98% | Percent Inhibition (ChaGo-K-1): 99% | Percent Inhibition (RL95): 99% | Percent Inhibition (A498): 100% | Percent Inhibition (NCI-H28): 99% | Percent Inhibition (HEC-1-A): 99% | Percent Inhibition (T98G): 99% | Percent Inhibition (BT-474): 99% | Percent Inhibition (BT-549): 99% | Percent Inhibition (Bel-7402): 99% | Percent Inhibition (C8166): 100% | Percent Inhibition (A704): 99% | Percent Inhibition (M059J): 99% | Percent Inhibition (Colo 205): 99% | Percent Inhibition (NCI-H1623): 99% | Percent Inhibition (J82): 99% | Percent Inhibition (HCC1599): 100% | Percent Inhibition (CCF-STTG1): 99% | Percent Inhibition (CW-2): 99% | Percent Inhibition (NCI-H524): 98% | Percent Inhibition (NCI-H1694): 100% | Percent Inhibition (NCI-H2347): 98% | Percent Inhibition (HT-1197): 99% | Percent Inhibition (NCI-H1770): 100% | Percent Inhibition (HCC1569): 99%

O=C1CC(c2ccc(O)c(O)c2)Oc2cc(OC3OC(C(=O)O)C(O)C(O)C3O)cc(O)c21 (stereo not drawn) [gly-2]
Percent Inhibition (TCCSUP): -4% | Percent Inhibition (SW13): -14% | Percent Inhibition (HGC-27): 0% | Percent Inhibition (Panc 03.27): 2% | Percent Inhibition (C3A): -5% | Percent Inhibition (HCC1395): 8% | Percent Inhibition (ZR-75-30): 15% | Percent Inhibition (MSTO-211-H): 7% | Percent Inhibition (HCC1937): -2% | Percent Inhibition (T47D): -2% | Percent Inhibition (NCI-H2405): -2% | Percent Inhibition (HPAF-II): -1% | Percent Inhibition (ChaGo-K-1): -33% | Percent Inhibition (RL95): 2% | Percent Inhibition (A498): -7% | Percent Inhibition (NCI-H28): -21% | Percent Inhibition (HEC-1-A): -19% | Percent Inhibition (T98G): -3% | Percent Inhibition (BT-474): -18% | Percent Inhibition (BT-549): -14% | Percent Inhibition (Bel-7402): -14% | Percent Inhibition (C8166): -12% | Percent Inhibition (A704): -14% | Percent Inhibition (M059J): -1% | Percent Inhibition (Colo 205): -6% | Percent Inhibition (NCI-H1623): 6% | Percent Inhibition (J82): -6% | Percent Inhibition (HCC1599): -8% | Percent Inhibition (CCF-STTG1): 1% | Percent Inhibition (CW-2): -2% | Percent Inhibition (NCI-H524): -15% | Percent Inhibition (NCI-H1694): -10% | Percent Inhibition (NCI-H2347): -2% | Percent Inhibition (HT-1197): -8% | Percent Inhibition (NCI-H1770): -4% | Percent Inhibition (HCC1569): -6%

CC(C)=CCc1c(O)cc2oc3c(CC=C(C)C)c(O)c(O)c(CC=C(C)C)c3c(=O)c2c1O [bn-1, Garcinone E]
inhibition at 20 µM (TCCSUP; Homo sapiens, TCC-SUP, read-out: Percent Inhibition): 97% | inhibition at 20 µM (SW13; [1]): 97% | inhibition at 20 µM (HGC-27; [1]): 99% | inhibition at 20 µM (Panc 03.27; Homo sapiens, PANC-03-27, read-out: Percent Inhibition): 90% | inhibition at 20 µM (C3A; [1]): 90% | inhibition at 20 µM (HCC1395; [1]): 100% | inhibition at 20 µM (ZR-75-30; [1]): 99% | inhibition at 20 µM (MSTO-211-H; [1]): 98% | inhibition at 20 µM (HCC1937; [1]): 97% | inhibition at 20 µM (T47D; [1]): 82% | inhibition at 20 µM (NCI-H2405; [1]): 93% | inhibition at 20 µM (HPAF-II; [1]): 90% | inhibition at 20 µM (ChaGo-K-1; [1]): 99% | inhibition at 20 µM (RL95; [1]): 99% | inhibition at 20 µM (A498; [1]): 98% | inhibition at 20 µM (NCI-H28; [1]): 95% | inhibition at 20 µM (HEC-1-A; [1]): 87% | inhibition at 20 µM (T98G; [1]): 100% | inhibition at 20 µM (BT-474; [1]): 87% | inhibition at 20 µM (BT-549; [1]): 98% | inhibition at 20 µM (Bel-7402; [1]): 98% | inhibition at 20 µM (C8166; [1]): 99% | inhibition at 20 µM (A704; [1]): 98% | inhibition at 20 µM (M059J; [1]): 95% | inhibition at 20 µM (Colo 205; [1]): 98% | inhibition at 20 µM (NCI-H1623; [1]): 91% | inhibition at 20 µM (J82; [1]): 98% | inhibition at 20 µM (HCC1599; [1]): 98% | inhibition at 20 µM (CCF-STTG1; [1]): 89% | inhibition at 20 µM (CW-2; [1]): 99% | inhibition at 20 µM (NCI-H524; [1]): 100% | inhibition at 20 µM (NCI-H1694; [1]): 100% | inhibition at 20 µM (NCI-H2347; [1]): 79% | inhibition at 20 µM (HT-1197; Homo sapiens, HT1197, read-out: Percent Inhibition): 97% | inhibition at 20 µM (NCI-H1770; [1]): 93% | inhibition at 20 µM (HCC1569; [1]): 96%
